# Legend:
# [1] = (Aime, 1995); cited from earlier work
# [2] = chelate with europium; previous studies (Hemmila, 1984); cited from earlier work
# [3] = (Bousquet, 1988); cited from earlier work
# [4] = Fluorometric analysis (excitation and emission spectra); type: physicochemical; settings: FIG. 4
# Method: For the synthesis of a nile blue-DTPA conjugate, 0.1 g of DTPA dianhydride (ccDPTA) was dissolved in 6 ml of dimethyl sulfoxide (DMSO) in a round bottom flask. Ninety mg of nile blue were dissolved in DMSO and 36 μL of triethyl amine were added, turning the solution purple. The nile blue solution was added drop wise to the solution of ccDTPA while stirring. The solution turned blue. Thirty-eight μL of […] (TEA) were added to the final mixture, turning the solution purple. After mixing, the mixture was heated to 60° C. and stirred for 2 hours. The reaction mixture was then loaded onto a silica gel column and eluted with acetone:ethylacetate. The fractions corresponding to the nile blue-DTPA conjugate were pooled and evaporated, yielding a magenta colored oil. The oil was rechromatographed on a second silica gel column using acetone as eluant. The nile blue-DTPA conjugated fractions were pooled and rotate-evaporated to give a magenta colored oil. […]
# The only group of chelating agents known to produce highly soluble and stable lanthanide chelates are the polyamino polyacetic acid analogs. […] The simplest initial approach was to study the fluorescence characteristics of the chelate between Eu and other already commercially available polyaminopoly bis (2-aminoethyl ether) acetic acids. […]
# [5] = Solubility in aqueous media at physiological pH; type: physicochemical
# From the text: where R may be furoic acid, nicotinic acid, picolinic acid, or some other substituted aromatic acid. The subsituted tetrazacyclododecane (STACD) is produced by reacting the amine groups with a brominated acid. 6-Bromo-picolinic acid, 5-bromo-nicotinic acid, and 5-bromo-furoic acid are all appropriate for prepararing a STACD. However, not all of these molecules are soluble in aqueous media at physiological pH. For example, while the tetrafuroic acid derivative is soluble in physiological fluids, the tetranicotinic acid derivative is not. The derivative should be combined with a solubility enhancer, for example, […], to form a salt which is soluble at pH 7. Other solubility enhancers may also be employed to modify the solubility of the STACD complex.
# Magnetic Resonance Imaging Contrast Agent: The molecules of the invention, especially TABFTA, STACD, and their derivatives, can also be used as contrast agents for magnetic resonance imaging (MRI). When chelated with lanthanide ions such as gadolinium (Gd^3+) or […], the resulting paramagnetic compound enhances the relaxation of hydrogen protons, increasing signal intensities in MRI imaging (Bousquet, 1988). The increased signal increases the signal-to-noise ratio, reducing imaging time. In addition, the contrast agent may increase specificity in diagnosis. […]
molecule,measurement,setting,value
"O=C(O)CN(CCN(CC(=O)O)CC(=O)O)CCN(CC(=O)O)CC(=O)O [DTPA, diethylenetriaminepentaacetic acid]",affinity constant (k),[1],23
O=C(O)CN(CCN(CC(=O)O)CC(=O)O)CC(=O)O [EDTA],fluorescence of the chelate,[2],essentially non-fluorescent
O=C([O-])CN1CCN(CC(=O)[O-])CCN(CC(=O)O)CCN(CC(=O)[O-])CC1.[Gd+3] [chelates of DOTA and gadolinium],distribution after intravenous injection,[3],extracellular space distribution
same,excretion after intravenous injection,[3],excreted only by glomerular filtration
CC[N+](CC)=c1ccc2nc3c(cc(N)c4ccccc43)oc-2c1 [nile blue],emission fluorescence wavelength,[4],695 nm
tetraazabycyclofurantetraacetate [TABFTA],water solubility,[5],water-soluble

# Source: patent US20030215391A1, “Fluorescent agents for real-time measurement of organ function” (priority 2003, published 2003)
